Test results: patent US9676773B2, “Azaindole derivative” (TAIHO PHARMACEUTICAL CO., LTD., priority 2014, dated 2017)

How the values were obtained:
Type in all cases: biochemical
[1] = target: T1, purified recombinant human JAK1 protein (Homo sapiens, UniProt P23458); experiment: Measurement of JAK1 kinase-inhibitory activity; settings: substrate peptide 1 μM, ATP 75 M (so in the source), 25° C., 120 minutes
T1 construct: purchased Carna Biosciences, Inc
Experimental: 1) Measurement of JAK1 Kinase-Inhibitory Activity
The activity of the compound of the present invention to inhibit the activity of JAK1 kinase was measured.
(§1) Among materials for the measurement of this inhibitory activity, a substrate peptide and a kinase protein were acquired as follows. As such a substrate peptide, a substrate peptide for QSS Assist™ JAK1-MSA assay kit (Carna Biosciences, Inc.) was purchased. As such a kinase protein, a purified recombinant human JAK1 protein (Carna Biosciences, Inc.) was purchased.
The method for measuring the inhibitory activity is as follows. First, the compounds of the present invention were each dissolved in dimethyl sulfoxide (DMSO), and a serial dilution was then prepared by the use of DMSO. Subsequently, a serial dilution solution of the compound (the final concentration of DMSO upon a kinase reaction: 5.0%) or DMSO (final concentration: 5.0%) was mixed with a solution containing the substrate peptide (final concentration: 1 μM), magnesium chloride (final concentration: 5 mM) and ATP (final concentration: 75 µM) in a buffer for kinase reaction (20 mM HEPES (pH 7.5), 2 mM dithiothreitol and 0.01% Triton X-100). Thereafter, a JAK1 protein was further added to the mixed solution, and the obtained mixture was then incubated at 25° C. for 120 minutes to carry out a kinase reaction. To the reaction solution, EDTA was added to a final concentration of 30 mM, so as to terminate the reaction. Finally, with LabChip EZ Reader II (Perkin Elmer Corp.), an unphosphorylated substrate peptide (S) and a phosphorylated peptide (P) were subjected to microchannel capillary electrophoresis, so that the two peptides were separated from each other and were then detected. The amount of a phosphorylation reaction was obtained based on the heights of the peaks of S and P, and the concentration of the compound capable of inhibiting 50% of the phosphorylation reaction was defined as an IC50 value (nM).

[2] = target: T2, purified recombinant human JAK2 protein (Homo sapiens, UniProt O60674); experiment: Measurement of JAK2 kinase-inhibitory activity; settings: FL-Peptide 22 1 μM, ATP 10 μM, 25° C., 80 minutes
T2 construct: purchased Carna Biosciences, Inc
Experimental: 2) Measurement of JAK2 Kinase-Inhibitory Activity
The activity of the compound of the present invention to inhibit the activity of JAK2 kinase was measured.
as §1, with “FL-Peptide 22 (Perkin Elmer Corp.)” for “a substrate peptide for QSS Assist™ JAK1-MSA assay kit (Carna Biosciences, Inc.)”, “JAK2” for “JAK1”
(§2) The method for measuring the inhibitory activity is as follows. First, a serial dilution of the compound of the present invention was prepared by the same method as that described in the above section regarding JAK1. This serial dilution solution (the final concentration of DMSO upon a kinase reaction: 5.0%) or DMSO (final concentration: 5.0%) was mixed with a solution containing the substrate peptide (final concentration: 1 μM), magnesium chloride (final concentration: 10 mM) and ATP (final concentration: 10 μM) in a buffer for kinase reaction (15 mM Tris (pH 7.5), 2 mM dithiothreitol and 0.01% Tween 20). Thereafter, a JAK2 protein was further added to the mixed solution, and the obtained mixture was then incubated at 25° C. for 80 minutes to carry out a kinase reaction. To the reaction solution, EDTA was added to a final concentration of 30 mM, so as to terminate the reaction. After termination of the reaction, the measurement and the data analysis were carried out by the same methods as those described in the above section regarding JAK1.

[3] = target: T3, purified recombinant human JAK3 protein (Homo sapiens, UniProt P52333); experiment: Measurement of JAK3 kinase-inhibitory activity; settings: substrate peptide 1 μM, ATP 5 μM, 25° C., 80 minutes
T3 construct: purchased Carna Biosciences, Inc
T3 sequence (P52333 1-1124): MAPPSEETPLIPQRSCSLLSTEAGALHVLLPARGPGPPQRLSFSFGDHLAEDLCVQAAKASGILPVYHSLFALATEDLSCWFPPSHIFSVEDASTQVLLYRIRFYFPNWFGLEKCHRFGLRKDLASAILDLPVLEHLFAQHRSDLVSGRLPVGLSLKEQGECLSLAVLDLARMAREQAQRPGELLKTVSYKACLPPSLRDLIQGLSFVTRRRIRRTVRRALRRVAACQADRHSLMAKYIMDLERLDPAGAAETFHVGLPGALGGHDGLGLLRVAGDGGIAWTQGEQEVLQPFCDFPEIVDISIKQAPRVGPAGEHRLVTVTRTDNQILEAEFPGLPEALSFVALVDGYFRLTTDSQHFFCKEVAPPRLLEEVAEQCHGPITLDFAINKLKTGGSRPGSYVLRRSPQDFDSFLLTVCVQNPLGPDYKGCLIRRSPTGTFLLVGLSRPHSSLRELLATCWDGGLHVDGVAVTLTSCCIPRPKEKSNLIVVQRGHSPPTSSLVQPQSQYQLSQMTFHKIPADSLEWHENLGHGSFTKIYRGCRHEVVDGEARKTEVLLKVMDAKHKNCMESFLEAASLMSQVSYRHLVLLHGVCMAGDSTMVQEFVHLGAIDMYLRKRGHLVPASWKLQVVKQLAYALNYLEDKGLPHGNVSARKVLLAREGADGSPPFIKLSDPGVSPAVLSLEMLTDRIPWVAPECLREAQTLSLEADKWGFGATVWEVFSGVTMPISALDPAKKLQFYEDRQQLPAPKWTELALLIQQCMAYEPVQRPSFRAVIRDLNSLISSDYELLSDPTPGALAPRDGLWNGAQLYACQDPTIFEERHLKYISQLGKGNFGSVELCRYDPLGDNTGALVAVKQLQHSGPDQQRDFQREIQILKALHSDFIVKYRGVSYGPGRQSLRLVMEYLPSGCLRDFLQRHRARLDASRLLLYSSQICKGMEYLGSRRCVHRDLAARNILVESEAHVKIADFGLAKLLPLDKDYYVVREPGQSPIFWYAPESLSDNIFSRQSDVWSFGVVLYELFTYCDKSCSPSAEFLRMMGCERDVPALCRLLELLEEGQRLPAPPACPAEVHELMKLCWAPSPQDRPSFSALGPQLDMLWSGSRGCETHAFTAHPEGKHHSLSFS
Experimental: 3) Measurement of JAK3 Kinase-Inhibitory Activity
The activity of the compound of the present invention to inhibit the activity of JAK3 kinase was measured.
as §1, with “JAK3-MSA” for “JAK1-MSA”, “JAK3” for “JAK1”
as §2, with “5” for “10”, “(20” for “(15”, “HEPES” for “Tris”, “Triton X-100).” for “Tween 20).”, “JAK3” for “JAK2”

T2 sequence (O60674 whole entry): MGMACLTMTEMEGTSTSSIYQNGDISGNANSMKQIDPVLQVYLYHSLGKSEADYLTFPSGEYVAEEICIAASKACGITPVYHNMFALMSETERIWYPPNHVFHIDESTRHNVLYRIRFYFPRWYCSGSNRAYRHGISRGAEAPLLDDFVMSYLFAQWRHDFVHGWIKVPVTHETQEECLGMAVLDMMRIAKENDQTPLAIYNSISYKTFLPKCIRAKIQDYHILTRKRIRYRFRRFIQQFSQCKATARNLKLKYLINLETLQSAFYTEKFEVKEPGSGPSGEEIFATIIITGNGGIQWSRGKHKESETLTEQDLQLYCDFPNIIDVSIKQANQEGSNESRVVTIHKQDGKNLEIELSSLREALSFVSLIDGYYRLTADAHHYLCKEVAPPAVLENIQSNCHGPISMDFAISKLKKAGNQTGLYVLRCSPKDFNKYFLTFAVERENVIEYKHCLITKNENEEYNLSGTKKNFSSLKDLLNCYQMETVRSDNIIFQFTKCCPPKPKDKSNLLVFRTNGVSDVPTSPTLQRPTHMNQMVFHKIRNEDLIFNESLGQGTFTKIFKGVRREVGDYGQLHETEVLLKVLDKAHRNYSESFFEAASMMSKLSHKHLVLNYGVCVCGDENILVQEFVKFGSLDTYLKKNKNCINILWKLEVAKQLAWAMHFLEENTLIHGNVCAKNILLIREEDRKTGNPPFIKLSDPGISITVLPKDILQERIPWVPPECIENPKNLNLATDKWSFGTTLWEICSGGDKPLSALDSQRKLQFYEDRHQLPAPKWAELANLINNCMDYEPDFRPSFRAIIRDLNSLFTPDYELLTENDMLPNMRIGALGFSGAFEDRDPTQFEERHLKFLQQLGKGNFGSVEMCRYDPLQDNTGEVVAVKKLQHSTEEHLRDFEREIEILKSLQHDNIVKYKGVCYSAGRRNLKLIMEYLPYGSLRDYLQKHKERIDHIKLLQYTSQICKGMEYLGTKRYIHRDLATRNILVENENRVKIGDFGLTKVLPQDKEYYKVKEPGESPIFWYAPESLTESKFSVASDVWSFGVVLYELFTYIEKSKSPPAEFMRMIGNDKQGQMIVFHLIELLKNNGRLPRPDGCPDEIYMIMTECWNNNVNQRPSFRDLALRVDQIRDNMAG
T1 sequence (P23458 whole entry): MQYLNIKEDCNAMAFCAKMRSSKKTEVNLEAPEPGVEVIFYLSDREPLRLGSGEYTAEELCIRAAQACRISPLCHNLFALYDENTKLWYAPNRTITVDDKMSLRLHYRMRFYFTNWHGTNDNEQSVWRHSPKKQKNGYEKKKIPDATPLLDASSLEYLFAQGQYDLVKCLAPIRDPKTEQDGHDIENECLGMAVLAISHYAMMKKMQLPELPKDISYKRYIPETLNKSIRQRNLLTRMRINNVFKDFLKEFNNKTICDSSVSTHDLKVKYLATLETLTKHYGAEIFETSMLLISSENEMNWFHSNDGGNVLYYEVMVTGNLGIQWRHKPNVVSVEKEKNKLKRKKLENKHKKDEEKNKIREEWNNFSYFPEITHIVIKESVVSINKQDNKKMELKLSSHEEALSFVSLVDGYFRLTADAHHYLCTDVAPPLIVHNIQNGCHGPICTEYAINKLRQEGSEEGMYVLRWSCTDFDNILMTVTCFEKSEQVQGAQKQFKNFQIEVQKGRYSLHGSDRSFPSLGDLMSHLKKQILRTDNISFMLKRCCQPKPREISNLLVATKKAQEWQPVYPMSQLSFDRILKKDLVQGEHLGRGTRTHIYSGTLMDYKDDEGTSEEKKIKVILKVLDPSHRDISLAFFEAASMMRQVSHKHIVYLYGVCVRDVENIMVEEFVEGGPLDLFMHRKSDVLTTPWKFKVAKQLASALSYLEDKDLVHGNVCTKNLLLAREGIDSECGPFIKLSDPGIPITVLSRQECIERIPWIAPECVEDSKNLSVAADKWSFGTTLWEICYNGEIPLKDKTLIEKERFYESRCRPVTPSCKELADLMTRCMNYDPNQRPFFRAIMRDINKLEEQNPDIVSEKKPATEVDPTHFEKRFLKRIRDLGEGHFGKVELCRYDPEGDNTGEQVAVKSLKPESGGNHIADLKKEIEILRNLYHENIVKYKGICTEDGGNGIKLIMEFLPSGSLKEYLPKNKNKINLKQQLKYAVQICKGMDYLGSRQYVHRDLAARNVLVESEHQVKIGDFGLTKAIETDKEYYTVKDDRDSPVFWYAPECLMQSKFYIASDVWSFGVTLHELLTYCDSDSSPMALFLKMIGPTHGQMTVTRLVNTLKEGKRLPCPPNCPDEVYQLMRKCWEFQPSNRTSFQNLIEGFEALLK

Row | Structure (SMILES) | IC50 [1] [nM] | IC50 [2] [nM] | IC50 [3] [nM]
1 | C=CC(=O)NC1CCC=C(c2ccnc3[nH]cc(-c4nnc(CC)o4)c23)C1 (stereo not drawn) [Compound 51, N-(3-(3-(5-Ethyl-1,3,4-oxadiazol-2-yl)-1H-pyrrolo[2,3-b]pyridin-4-yl)cyclohex-3-en-1-yl)acrylamide] | 3000 | 380 | 0.61
2 | C=CC(=O)NC1CCC=C(c2ccnc3[nH]cc(-c4n[nH]c(=O)o4)c23)C1 (stereo not drawn) [Compound 52, N-(3-(3-(5-Oxo-4,5-dihydro-1,3,4-oxadiazol-2-yl)-1H-pyrrolo[2,3-b]pyridin-4-yl)cyclohex-3-en-1-yl)acrylamide] | 890 | 480 | < 0.3
